The source of these data is ChEMBL document CHEMBL1159008, “Isolation, NMR studies, and biological activities of onopordopicrin from Centaurea sonchifolia” (J Nat Prod, 1992).

Each structure is given as a SMILES string. ≈ marks a conversion by molar mass, not a printed value. Calls of active or inactive are those of the source. The rule behind the calls is not given here.

In assay [1] the test system is KB. In words: Cytotoxicity against human KB cells. In kind it is functional, cell-based.
The test system of assay [2] is Staphylococcus aureus. In words: Antibacterial activity against Staphylococcus aureus ATCC 25923 by disk diffusion assay. The assay is classed as functional, organism-based. (A growth-free zone around the sample is the usual read-out of agar diffusion tests.)
For assay [3], the system named is Candida albicans. In words: Antifungal activity against Candida albicans A-26 at 250 ug/dsik. The assay is classed as functional, organism-based.
Assay [4] relates to Trichophyton mentagrophytes. Kind of assay: Antifungal activity against Trichophyton mentagrophytes A-23 at 250 ug/dsik. The assay is classed as functional, organism-based.
Assay [5] concerns Saccharomyces cerevisiae. In words: Antifungal activity against Saccharomyces cerevisiae M25 at 250 ug/dsik. In kind it is functional, organism-based.

Consider `C=C(CO)C(=O)O[C@H]1C/C(C)=C\CC/C(CO)=C\[C@H]2OC(=O)C(=C)[C@H]12` [ONOPORDOPICRIN], for which the midpoint of the response in assay [1], the EC50, lay at 0.85 µg/mL (≈ 2.44 µM). In addition, the result in assay [2] was Active. Further, the outcome in assay [3], in assay [4] and in assay [5] was inactive.

Broadly, the EC50 is the concentration needed to bring the measured effect to its halfway point.
